pEC50: −log10 of the molar value.

These results are taken from article PMC8395219, “Comparative Analysis of Single-Molecule Dynamics of TRPV1 and TRPV4 Channels in Living Cells” (International Journal of Molecular Sciences, 2021).

The target in the assay is T1, TRPV4 (Homo sapiens, UniProt Q9HBA0).
T1 construct: HaloTag fused to the N-terminus of human TRPV4, expressed in TRPV4-KO HEK293 cells
In words: FLIPR calcium mobilization assay in transfected TRPV4-KO HEK293 cells (agonist dose-response). Format: cell-based. For orientation: A change in cytosolic calcium serves as a functional read-out for many receptors and channels.

T1 sequence (Q9HBA0 whole entry, the tested form may be a part): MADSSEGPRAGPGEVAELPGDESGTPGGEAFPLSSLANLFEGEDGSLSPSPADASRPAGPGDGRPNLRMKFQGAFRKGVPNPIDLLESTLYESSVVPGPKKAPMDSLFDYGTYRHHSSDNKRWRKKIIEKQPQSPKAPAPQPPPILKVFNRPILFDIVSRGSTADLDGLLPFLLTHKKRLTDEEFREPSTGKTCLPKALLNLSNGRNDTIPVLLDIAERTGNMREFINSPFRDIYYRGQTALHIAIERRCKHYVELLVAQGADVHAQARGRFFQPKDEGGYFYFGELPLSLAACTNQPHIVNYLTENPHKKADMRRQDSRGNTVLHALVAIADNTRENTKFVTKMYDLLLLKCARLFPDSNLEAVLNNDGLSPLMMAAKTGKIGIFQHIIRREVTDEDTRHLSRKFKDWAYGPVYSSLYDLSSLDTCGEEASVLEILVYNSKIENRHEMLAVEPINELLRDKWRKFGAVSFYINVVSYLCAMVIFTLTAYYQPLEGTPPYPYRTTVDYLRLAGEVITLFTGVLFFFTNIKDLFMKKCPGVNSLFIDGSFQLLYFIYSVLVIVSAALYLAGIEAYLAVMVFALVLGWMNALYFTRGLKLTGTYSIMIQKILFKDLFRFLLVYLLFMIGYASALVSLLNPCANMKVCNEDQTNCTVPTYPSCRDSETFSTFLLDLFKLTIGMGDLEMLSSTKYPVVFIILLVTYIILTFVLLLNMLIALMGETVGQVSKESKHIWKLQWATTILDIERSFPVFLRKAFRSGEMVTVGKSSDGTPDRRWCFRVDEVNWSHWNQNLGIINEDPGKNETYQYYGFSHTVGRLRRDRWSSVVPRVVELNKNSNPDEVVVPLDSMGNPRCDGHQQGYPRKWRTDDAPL

As for `CC(C)C[C@H](NC(=O)c1cc2ccccc2s1)C(=O)N1CCN(C(=O)[C@H](CO)NS(=O)(=O)c2ccc(Cl)cc2Cl)CC1` [GSK1016790A, N-((1S)-1-{[4-((2S)-2-{[(2,4-dichlorophenyl)sulfonyl]amino}-3-hydroxypropanoyl)-1-piperazinyl]carbonyl}-3-methylbutyl)-1-benzothiophene-2-carboxamide], the pEC50 was 7.59.

As usually defined, the pEC50 is −log10 of the EC50, conventionally taken in molar units.
